Test results: patent US12459912B2 (priority 2020, dated 2025)

Columns and labels:
[1] = molecular target: ADRB1 (Adrenergic Receptor β1) (Homo sapiens, UniProt P08588); assay: ADRB1/cAMP; format: cell-based
[2] = molecular target: EDNRA (Endothelin Receptor Type A) (Homo sapiens, UniProt P25101); assay: EDNRA/Calcium Flux; format: cell-based
[3] = molecular target: CNR2 (Cannabinoid Receptor 2) (Homo sapiens, UniProt P34972); assay: CNR2/cAMP; format: cell-based
[4] = molecular target: T1, 5-Hydroxytryptamine (Serotonin) Receptor 3A (5-HT3A) (Homo sapiens, UniProt P46098); assay: 5-HT3A/Ion Channel; format: cell-based; conditions: EC50 (μM)
T1 construct: expressed in transfected cells

[5] = molecular target: OPRM1 (Opioid Receptor Mu) (Homo sapiens, UniProt P35372); assay: cell-based
[6] = molecular target: CCKAR (Cholecystokinin Receptor A) (Homo sapiens, UniProt P32238); assay: CCKAR/Calcium Flux; format: cell-based
COX1 (Cyclooxygenase 1) = molecular target: T2, COX1 (Cyclooxygenase 1) (Homo sapiens, UniProt P23219); assay: COX1/Enzymatic; format: biochemical
T2 construct: purchased BPS Bioscience

[7] = molecular target: 5-Hydroxytryptamine (Serotonin) Receptor 2B (5-HT2B) (Homo sapiens, UniProt P41595); assay: 5-HT2B/Calcium Flux; format: cell-based; conditions: EC50 (μM)
[8] = molecular target: ADRA1A (Adrenergic Receptor on α1A) (Homo sapiens, UniProt P35348); assay: ADRA1A/Calcium Flux; format: cell-based; conditions: EC50 (μM)
[9] = molecular target: T3, NMDAR (1A/2B) (N-methyl-D-aspartate (NMDA) Glutamate Receptor 1A/2B) (Homo sapiens, UniProt Q05586+Q13224); assay: NMDAR (1A/2B)/Ion Channel; format: cell-based
T3 construct: expressed in transfected cells

[10] = molecular target: OPRK1 (Opioid Receptor Kappa 1) (Homo sapiens, UniProt P41145); assay: OPRK1/cAMP; format: cell-based
[11] = molecular target: T4, NET (Norepinephrine transporter) (Homo sapiens, UniProt P23975); assay: NET/Transporter (fluorescent substrate uptake); format: cell-based
T4 construct: expressed in transfected cells

[12] = molecular target: HRH2 (Histamine Receptor H2) (Homo sapiens, UniProt P25021); assay: HRH2/cAMP; format: cell-based
COX2 (Cyclooxygenase 2) = molecular target: T5, COX2 (Cyclooxygenase 2) (Homo sapiens, UniProt P35354); assay: COX2/Enzymatic; format: biochemical
T5 construct: purchased BPS Bioscience

[13] = molecular target: 5-Hydroxytryptamine (Serotonin) Receptor 1B (5-HT1B) (Homo sapiens, UniProt P28222); assay: 5-HT1B/cAMP; format: cell-based; conditions: EC50 (μM)
[14] = molecular target: GR (Nuclear Hormone Glucocorticoid Receptor) (Homo sapiens, UniProt P04150); assay: GR/NHR Protein Interaction; format: cell-based
[15] = molecular target: ADORA2A (Adenosine Receptor A2A) (Homo sapiens, UniProt P29274); assay: ADORA2A/Calcium Flux; format: cell-based
[16] = molecular target: T6, AChE (Acetylcholinesterase) (Homo sapiens, UniProt P22303); assay: AChE/Enzymatic; format: biochemical
T6 construct: purchased R&D Systems

[17] = molecular target: T7, INSR (Insulin Receptor (tyrosine kinase)) (Homo sapiens, UniProt P06213); assay: INSR/Binding (KINOMEscan)
T7 construct: made in house; host or cells: E. coli BL21-derived host (T7 phage) or HEK-293

KvLQT1/minK = molecular target: T8, KvLQT1/minK (Homo sapiens, UniProt P51787); assay: KvLQT1/minK/Ion Channel; format: cell-based
T8 construct: expressed in transfected cells

[18] = molecular target: ADRB2 (Adrenergic Receptor β2) (Homo sapiens, UniProt P07550); assay: ADRB2/cAMP; format: cell-based; conditions: EC50 (μM)
[19] = molecular target: T9, ROCK1 (Rho Associated Coiled-Coil Containing Protein Kinase 1) (Homo sapiens, UniProt Q13464); assay: ROCK1/Binding (KINOMEscan)
T9 construct: made in house; host or cells: E. coli BL21-derived host (T7 phage) or HEK-293

[20] = molecular target: T10, VEGFR2 (Vascular endothelial growth factor receptor 2 (KDR tyrosine kinase)) (Homo sapiens, UniProt P35968); assay: biochemical; format: binding
T10 construct: made in house; host or cells: E. coli BL21-derived host (T7 phage) or HEK-293

[21] = molecular target: CHRM1 (Muscarinic acetylcholine Receptor M1) (Homo sapiens, UniProt P11229); assay: cell-based
[22] = molecular target: HRH1 (Histamine Receptor H1) (Homo sapiens, UniProt P35367); assay: cell-based
[23] = molecular target: CHRM3 (Muscarinic acetylcholine Receptor M3) (Homo sapiens, UniProt P20309); assay: cell-based
[24] = molecular target: 5-Hydroxytryptamine (Serotonin) Receptor 1A (5-HT1A) (Homo sapiens, UniProt P08908); assay: 5-HT1A/cAMP; format: cell-based
hERG = molecular target: T11, hERG (Homo sapiens, UniProt Q12809); assay: hERG/Ion Channel; format: cell-based
T11 construct: expressed in transfected cells

[25] = molecular target: OPRD1 (Opioid Receptor Delta 1) (Homo sapiens, UniProt P41143); assay: OPRD1/cAMP; format: cell-based
[26] = molecular target: ADRA2A (Adrenergic Receptor on α2A) (Homo sapiens, UniProt P08913); assay: ADRA2A/cAMP; format: cell-based
[27] = molecular target: T12, SERT (Serotonin transporter) (Homo sapiens, UniProt P31645); assay: cell-based
T12 construct: expressed in transfected cells

[28] = molecular target: T13, LCK (Lymphocyte Cell-Specific Protein-Tyrosine Kinase (Src family)) (Homo sapiens, UniProt P06239); assay: LCK/Binding (KINOMEscan)
T13 construct: made in house; host or cells: E. coli BL21-derived host (T7 phage) or HEK-293

[29] = molecular target: T14, PDE4D2 (cAMP-specific 3′,5′-cyclic phospho-diesterase) (Homo sapiens, UniProt Q08499); assay: PDE4D2/Enzymatic; format: biochemical
T14 construct: purchased Signal Chem

[30] = molecular target: CHRM2 (Muscarinic acetylcholine Receptor M2) (Homo sapiens, UniProt P08172); assay: CHRM2/cAMP; format: cell-based
[31] = system: T15, GABAA (Gamma-aminobutyric acid Receptor A); format: cell-based
T15 construct: other: opener

## CNC(C)Cc1ccc2ccsc2c1 (stereo not shown) [drawing 522]
[1]
  EC50: > 10 µM
[2]
  EC50: > 10 µM
[3]
  EC50: > 10 µM
[4]; blocker
  EC50: 5.18 µM
[4]; opener
  EC50: > 10 µM
[5]
  EC50: > 10 µM
[6]
  EC50: > 10 µM
COX1 (Cyclooxygenase 1)
  EC50: > 10 µM
[7]; agonist
  EC50: > 10 µM
[7]; antagonist
  EC50: 0.072 µM
[8]; agonist
  EC50: > 10 µM
[8]; antagonist
  EC50: 3.43 µM
[9]
  EC50: > 10 µM
[10]
  EC50: > 10 µM
[11]
  EC50: 0.684 µM
[12]
  EC50: > 10 µM
COX2 (Cyclooxygenase 2)
  EC50: > 10 µM
[13]; agonist
  EC50: 0.024 µM
[13]; antagonist
  EC50: > 10 µM
[14]
  EC50: > 10 µM
[15]
  EC50: > 10 µM
[16]
  EC50: > 10 µM
[17]
  EC50: > 10 µM
KvLQT1/minK
  EC50: > 10 µM
[18]; agonist
  EC50: > 10 µM
[18]; antagonist
  EC50: 5.79 µM
[19]
  EC50: > 10 µM
[20]
  EC50: > 10 µM
[21]
  EC50: > 10 µM
[22]
  EC50: > 10 µM
[23]
  EC50: > 10 µM
[24]
  EC50: > 10 µM
hERG
  EC50: > 10 µM
[25]
  EC50: > 10 µM
[26]
  EC50: > 10 µM
[27]
  EC50: > 10 µM
[28]
  EC50: > 10 µM
[29]
  EC50: > 10 µM
[30]
  EC50: > 10 µM
[31]
  EC50: > 10 µM
